According to article PMC7447632, “Highly functionalized β-lactams and 2-ketopiperazines as TRPM8 antagonists with antiallodynic activity” (Scientific Reports, 2020):

Tests used:
Type in all cases: cell-based
[1] = test system: PSN1 (pancreas adenocarcinoma); assay: SRB cytotoxicity assay, PSN1; conditions: 72 h, SRB; for TGI PSN1: total growth inhibition; for TGI PSN1 / CC50: unit inferred; for GI50 / CC50: Homo sapiens, PSN1; for CC50: read-out: LC50 PSN1
Method: (§1) Human tumor cell lines used in this study were purchased from the ATCC. A-549 (CCL-185), lung carcinoma; HT-29 (HTB-38), colorectal adenocarcinoma; MDA-MB-231 (HTB-26), breast adenocarcinoma; PSN1, pancreas adenocarcinoma.
(§2) All cell lines were maintained in DMEM (Dulbecco’s Modified Eagle's Medium) culture medium supplemented with 10% FBS (Fetal Bovine Serum), 100 Units/mL penicillin/streptomycin at 37 °C, 5% CO2 and 95% humidity.
(§3) Triplicate cultures were incubated for 72 h in the presence or absence of test compounds in dose–response curves (10 concentrations, typically ranging from 10 to 0.0026 µg/mL). A colorimetric assay using sulforhodamine B (SRB) was adapted for quantitative measurement of cell growth and cytotoxicity. A more detailed information on this assay is provides in the supplementary information. GI50 is the compound concentration that produces 50% inhibition on cell growth as compared to control cells.
(§4) In vitro bioassays for the detection of antitumor activity
(§5) The aim of this assay is to evaluate the in vitro cytostatic (ability to delay or arrest tumor cell growth) or cytotoxic (ability to kill tumor cells) activity of the samples […]
(§6) Name Nº ATCC Species Tissue Characteristics
(§7) A549 CCL-185 human lung lung carcinoma (NSCLC)
(§8) HT29 HTB-38 human colon colorectal adenocarcinoma
(§9) MDA-MB-231 HTB-26 human breast breast adenocarcinoma
(§10) PSN1 CRM-CRL-3211 human pancreas pancreas adenocarcinoma […]
(§11) A colorimetric assay, using Sulforhodamine B (SRB) reaction has been adapted to provide a quantitative measurement of cell growth and viability (following the technique described by Skehan et al. J. Natl. Cancer Inst. 1990, 82, 1107-1112 […]
(§12) This form of assay employs 96-well cell culture microplates following the standards of the American National Standards Institute and the Society for Laboratory […]
(§13) used in this study were obtained from the American Type Culture Collection (ATCC) and derive from different types of human cancer.
(§14) A549, HT29, MDA-MB-231 and PSN1 cells were maintained in Dulbecco’s
(§15) Modified Eagle Medium (DMEM) supplemented with 10% Fetal Bovine Serum (FBS), 2mM L-glutamine, 100 U/mL penicillin, and 100 U/mL streptomycin at 37 °C, 5% CO2 and 98% humidity. For the experiments, cells were harvested from subconfluent cultures using trypsinization and resuspended in fresh medium before counting and […]
(§16) A549, HT29, MDA-MB-231 and PSN1 cells were seeded in 96 well microtiter plates, at 5000 cells per well in aliquots of 150 µL, and allowed to attach to the plate surface for 18 hours (overnight) in drug free medium. After that, one control (untreated) plate of each cell line was fixed (as described below) and used for time zero reference value. Culture plates were then treated with test compounds (50 µL aliquots of 4X stock […]
(§17) solutions in complete culture medium plus 4% DMSO) using ten 2/5 serial dilutions (concentrations ranging from 10 to 0.003 µg/mL) and triplicate cultures (1% final concentration in DMSO). After 72 hours treatment, the antitumor effect was measured by using the SRB methodology: Briefly, cells were washed twice with PBS, fixed for 15 min in 1% glutaraldehyde solution at room temperature, rinsed twice in PBS, and stained in 0.4% SRB solution for 30 min at room temperature. Cells were then rinsed several times with 1% acetic acid solution and air-dried at room temperature. SRB was then extracted in 10 mM trizma base solution and the absorbance measured in an automated spectrophotometric plate reader at 490 nm.
(§18) Effects on cell growth and survival were estimated by applying the NCI algorithm (Boyd MR and Paull KD. Drug Dev. Res. 1995, 34, 91-109, DOI:10.1002/ddr.430340203). The values obtained in triplicate cultures were fitted by nonlinear regression to a four-parameters logistic curve by nonlinear regression analysis. . Using the absorbance measurements [time zero, (Tz), control growth, (C), and test growth in the presence of drug at the ten concentration levels (Ti)], the […]

[2] = test system: HT29 (colorectal adenocarcinoma); assay: SRB cytotoxicity assay, HT29; conditions: 72 h, SRB; for TGI HT29: total growth inhibition; for TGI HT29 / CC50: unit inferred; for GI50 / CC50: Homo sapiens, HT-29; for CC50: read-out: LC50 HT29
Method: as §1, §2, §3, §4, §5, §6, §7, §8, §9, §10, §11, §12, §13, §14, §15, §16, §17, §18

[3] = test system: 60 tumor cell screen; assay: 60 tumor cell screen at the National Cancer Institute; conditions: 10 µM concentration
Excerpt: A number of recent experimental evidences position TRPM channels as important players in cancer growth and progression. Among these channels, the aberrant expression of the TRPM8 subtype has been described in different human malignant tumors, including those of prostate, pancreas, breast, colon, and skin, among others. More importantly, sometimes the TRPM8 overexpression was associated to poor prognosis of cancer patients. […] Based on these precedents, in this work we first aimed at evaluating the antitumor activity of enantiopure compounds 24a and 29a. Initially, we assessed the growth inhibition percentage by a 10 µM concentration of these compounds on a 60 tumor cell screen at the National Cancer Institute (USA).

[4] = test system: A549 (lung carcinoma, NSCLC); assay: SRB cytotoxicity assay, A549; conditions: 72 h, SRB; for TGI A549: total growth inhibition; for TGI A549 / CC50: unit inferred; for GI50 / CC50: Homo sapiens, A549; for CC50: read-out: LC50 A549
Method: as §1, §2, §3, §4, §5, §6, §7, §8, §9, §10, §11, §12, §13, §14, §15, §16, §17, §18

[5] = target: T1, hTRPV1 channels (Homo sapiens, UniProt Q8NER1); assay: Ca2+ microfluorometry in HEK cells expressing hTRPV1 (capsaicin); conditions: 1 µM capsaicin; for TRPV1 Blockade (%) 5 µM: 5 µM compound; for TRPV1 Blockade (%) 50 µM: 50 µM compound
T1 construct: expressed in transfected cells; host or cells: HEK (stably transfected)
T1 sequence (Q8NER1 whole entry): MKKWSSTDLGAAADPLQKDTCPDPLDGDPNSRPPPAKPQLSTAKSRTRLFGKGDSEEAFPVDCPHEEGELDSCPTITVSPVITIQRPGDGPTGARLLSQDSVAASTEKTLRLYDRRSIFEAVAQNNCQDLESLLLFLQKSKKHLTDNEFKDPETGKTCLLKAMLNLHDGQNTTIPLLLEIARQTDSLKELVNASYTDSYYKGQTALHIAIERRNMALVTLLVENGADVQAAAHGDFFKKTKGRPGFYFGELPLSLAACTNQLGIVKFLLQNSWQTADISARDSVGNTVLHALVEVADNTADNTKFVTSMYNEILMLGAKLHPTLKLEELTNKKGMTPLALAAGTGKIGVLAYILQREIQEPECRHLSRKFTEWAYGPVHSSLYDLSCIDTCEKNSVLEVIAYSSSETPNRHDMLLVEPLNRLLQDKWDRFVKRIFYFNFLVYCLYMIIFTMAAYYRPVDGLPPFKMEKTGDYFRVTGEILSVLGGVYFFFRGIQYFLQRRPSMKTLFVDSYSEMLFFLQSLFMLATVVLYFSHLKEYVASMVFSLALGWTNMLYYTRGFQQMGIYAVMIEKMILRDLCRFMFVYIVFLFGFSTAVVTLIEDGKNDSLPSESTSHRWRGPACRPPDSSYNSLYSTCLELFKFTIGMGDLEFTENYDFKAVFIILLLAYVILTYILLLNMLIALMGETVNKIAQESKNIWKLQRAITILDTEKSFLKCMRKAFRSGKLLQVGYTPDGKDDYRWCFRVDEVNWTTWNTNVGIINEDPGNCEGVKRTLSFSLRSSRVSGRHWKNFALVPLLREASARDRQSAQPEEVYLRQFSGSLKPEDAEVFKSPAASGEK
Method: β-Lactam and 2-ketopiperazine derivatives were also assayed for their activity in cell expressing hTRPV1 channels. No significant antagonist activity was measured for any derivatives within both chemotypes (Supplementary Tables S1, S2, and Fig. S3), indicating their selectivity for TRPM8 channels.
Human embryonic kidney cell line (HEK) stably transfected with rTRPM8 or h-TRPV1 were used as previously described. Briefly, cells were seeded in 96-well plates at a cell density of 30,000 cells 2 days before treatment. Buffer used was HBBS (in mM): 138 NaCl, 5.33 KCl, 1.26 CaCl2, 0.5 MgCl-6H2O, 0.4 MgSO4-7H2O, 4 NaHCO3 0.44 KH2PO4, 0.3 Na2HPO4, pH 7.4. The day of treatment the medium was replaced with 100 µL of the dye loading solution Fluo-4 NW supplemented with probenecid 2.5 mM. After incubation, plates were transferred to a fluorescence plate reader (Polastar BMG). In the experimental protocol, the baseline fluorescence was recorded ([…]) for 3 cycles. After, vehicle, compound at different concentrations and the corresponding antagonist, 10 µM AMTB for TRPM8 or 10 µM Ruthenium Red for TRPV1 were added to the well. Fluorescence intensity was recorded during 7 cycles more. Finally, the agonist 100 µM menthol for TRPM8 or 1 µM capsaicin for TRPV1 was added and fluorescence intensity was recorded during 10 cycles more.
Table S1. Activity at hTRPV1 of β–lactams derived from phenylalaninol conjugates
Compd. Isomer Isomer TRPV1 Blockade (%)
Table S2. Activity at hTRPV1 of 2-ketopiperazines derived from phenylalaninol

SMILES	TGI PSN1 [1]	GI50 [1]	CC50 [1]	TGI HT29 [2]	GI50 [2]	CC50 [2]	Growth inhibition in 60 tumor cell screen [3]	TGI A549 [4]	GI50 [4]	CC50 [4]	TRPV1 Blockade (%) 5 µM [5]	TRPV1 Blockade (%) 50 µM [5]
C[C@@H]1C(=O)N(C[C@H](Cc2ccccc2)NC(=O)OCc2ccccc2)[C@]1(Cc1ccccc1)C(=O)OCc1ccccc1 [Compound 24a, 4S-Benzyl-4-benzyloxycarbonyl-3S-methyl-1-[(2′S-benzyloxycarbonylamino-3′-phenyl)prop-1′-yl]-2-oxoazetidine]	> 17.3 µM	5.55 µM	> 17.3 µM	> 17.3 µM	4.16 µM	> 17.3 µM	non-selective, modest cytotoxic effects	> 17.3 µM	3.29 µM	> 17.3 µM	9.7±1.1%	11.8±3.2%
C[C@@H]1C(=O)N(C[C@@H](Cc2ccccc2)NC(=O)OCc2ccccc2)[C@]1(Cc1ccccc1)C(=O)OCc1ccccc1 [Compound 29a, 4S-Benzyl-4-benzyloxycarbonyl-3S-methyl-1-[(2′R-benzyloxycarbonylamino-3′-phenyl)prop-1′-yl]-2-oxoazetidine]	> 17.3 µM	6.42 µM	> 17.3 µM	> 17.3 µM	7.11 µM	> 17.3 µM	non-selective, modest cytotoxic effects	> 17.3 µM	5.9 µM	> 17.3 µM	8.2±2.1%	16.2±4.7%
